Values after ≈ are worked out from the molar mass of the structure shown.
How the values were obtained:
Vero = experiment: Cytotoxicity against African green monkey Vero cells by green fluorescent protein microplate assay; type: cell-based; settings: Chlorocebus sabaeus
[1] = system: Mycobacterium tuberculosis; experiment: Antitubercular activity against Mycobacterium tuberculosis H37Ra infected in African green monkey Vero cells measured daily for 8 days by green fluorescent protein microplate assay; type: functional; settings: 192 h

Row | Compound | IC50 (Vero) [µM] | MIC [1] [µg/mL]
1 | C/C(=C\CC[C@@H](C)[C@H]1C[C@H](O)[C@@]2(C)C3=CC[C@H]4C(C)(C)C(=O)CC[C@]4(C)C3=CC[C@]12C)C(=O)O | > 107 | 50 (≈ 107 µM)
2 | CC(=O)O[C@@H](C/C=C(\C)C(=O)O)[C@@H](C)[C@H]1CC[C@@]2(C)C3=CC[C@H]4C(C)(C)[C@H](O)CC[C@]4(C)C3=CC[C@]12C | > 98 | 50 (≈ 97.5 µM)
3 | CO[C@@H]1C[C@H]2C(C)(C)[C@@H](OC(C)=O)CC[C@]2(C)C2=C1[C@]1(C)CC[C@H]([C@H](C)[C@H](C/C=C(\C)C(=O)O)OC(C)=O)[C@@]1(C)CC2 | 28 | 25 (≈ 42.6 µM)
4 | CC(=O)O[C@H]1CC[C@]2(C)C3=C([C@H](O)C[C@H]2C1(C)C)[C@]1(C)CC[C@H]([C@H](C)CC/C=C(\C)C(=O)O)[C@@]1(C)CC3 | 72 | 25 (≈ 48.6 µM)
5 | CC(=O)O[C@@H](C/C=C(\C)C(=O)O)[C@@H](C)[C@H]1CC[C@@]2(C)C3=C(CC[C@]12C)[C@@]1(C)CCC(=O)C(C)(C)[C@@H]1CC3 | 93 | > 50
6 | CO[C@@H]1C[C@H]2C(C)(C)[C@@H](OC(C)=O)CC[C@]2(C)C2=C1[C@]1(C)[C@@H](O)C[C@H]([C@H](C)CC/C=C(\C)C(=O)O)[C@@]1(C)CC2 | 32 | 50 (≈ 91.8 µM)
7 | CC(=O)O[C@@H](C/C=C(\C)C(=O)O)[C@@H](C)[C@H]1C[C@H](OC(C)=O)[C@@]2(C)C3=C(CC[C@]12C)[C@@]1(C)CCC(=O)C(C)(C)[C@@H]1CC3 | 86 | > 50
8 | CC(=O)O[C@@H](C/C=C(\C)C(=O)O)[C@@H](C)[C@H]1C[C@H](OC(C)=O)[C@@]2(C)C3=CC[C@H]4C(C)(C)[C@@H](OC(C)=O)CC[C@]4(C)C3=CC[C@]12C | 16 | 0.781 (≈ 1.27 µM)
9 | CC(=O)O[C@@H](C/C=C(\C)C(=O)O)[C@@H](C)[C@H]1C[C@H](OC(C)=O)[C@@]2(C)C3=C(CC[C@]12C)[C@@]1(C)CC[C@H](OC(C)=O)C(C)(C)[C@@H]1CC3 | 15 | 3.13 (≈ 5.09 µM)
10 | CC(=O)O[C@@H](C/C=C(\C)C(=O)O)[C@@H](C)[C@H]1C[C@H](O)[C@@]2(C)C3=CC[C@H]4C(C)(C)C(=O)CC[C@]4(C)C3=CC[C@]12C | > 95 | > 50
11 | CC(=O)O[C@@H](C/C=C(\C)C(=O)O)[C@@H](C)[C@H]1CC[C@@]2(C)C3=C(CC[C@]12C)[C@@]1(C)CCC(=O)C(C)(C)[C@@H]1C[C@H]3O | > 95 | > 50
12 | CC(=O)O[C@@H](C/C=C(\C)C(=O)O)[C@@H](C)[C@H]1CC[C@@]2(C)C3=CC[C@H]4C(C)(C)C(=O)CC[C@]4(C)C3=CC[C@]12C | 35 | > 50
13 | CC(=O)O[C@@H](C/C=C(\C)C(=O)O)[C@@H](C)[C@H]1C[C@H](OC(C)=O)[C@@]2(C)C3=C(CC[C@]12C)[C@@]1(C)CC[C@H](OC(C)=O)C(C)(C)[C@@H]1C[C@H]3O | 28 | 3.13 (≈ 4.96 µM)
14 | CC(=O)O[C@H]1CC[C@]2(C)C3=C(CC[C@H]2C1(C)C)[C@]1(C)[C@@H](OC(C)=O)C[C@H]([C@H](C)CC/C=C(\C)C(=O)O)[C@@]1(C)CC3 | 22 | 0.781 (≈ 1.4 µM)
15 | CO[C@@H]1C[C@H]2C(C)(C)C(=O)CC[C@]2(C)C2=C1[C@]1(C)CC[C@H]([C@H](C)[C@H](C/C=C(\C)C(=O)O)OC(C)=O)[C@@]1(C)CC2 | 36 | 50 (≈ 92.1 µM)
16 | CC(=O)O[C@H]1CC[C@]2(C)C3=C([C@H](O)C[C@H]2C1(C)C)[C@]1(C)[C@@H](OC(C)=O)C[C@H]([C@H](C)CC/C=C(\C)C(=O)O)[C@@]1(C)CC3 | 32 | 1.56 (≈ 2.72 µM)
17 | CC(=O)O[C@@H](C/C=C(\C)C(=O)O)[C@@H](C)[C@H]1C[C@H](OC(C)=O)[C@@]2(C)C3=C(CC[C@]12C)[C@@]1(C)CCC(=O)C(C)(C)[C@@H]1C[C@H]3O | > 85 | > 50
18 | CC(=O)O[C@@H](C/C=C(\C)C(=O)O)[C@@H](C)[C@H]1CC[C@@]2(C)C3=CC[C@H]4C(C)(C)[C@@H](OC(C)=O)CC[C@]4(C)C3=CC[C@]12C | 32 | 12.5 (≈ 22.5 µM)
19 | CC(=O)O[C@@H](C/C=C(\C)C(=O)O)[C@@H](C)[C@H]1CC[C@@]2(C)C3=C(CC[C@]12C)[C@@]1(C)CCC(=O)C(C)(C)[C@@H]1CC3=O | 91 | 50 (≈ 94.9 µM)
20 | CO[C@@H]1C[C@H]2C(C)(C)[C@@H](OC(C)=O)CC[C@]2(C)C2=C1[C@]1(C)[C@@H](OC(C)=O)C[C@H]([C@H](C)[C@H](C/C=C(\C)C(=O)O)OC(C)=O)[C@@]1(C)CC2 | 26 | 12.5 (≈ 19.4 µM)
21 | CC(=O)O[C@@H](C/C=C(\C)C(=O)O)[C@@H](C)[C@H]1CC[C@@]2(C)C3=C(CC[C@]12C)[C@@]1(C)CC[C@@H](OC(C)=O)C(C)(C)[C@@H]1CC3=O | 33 | > 50
22 | CC(=O)O[C@@H](C/C=C(\C)C(=O)O)[C@@H](C)[C@H]1C[C@H](OC(C)=O)[C@@]2(C)C3=C(CC[C@]12C)[C@@]1(C)CC[C@H](O)C(C)(C)[C@@H]1CC3 | 30 | 50 (≈ 87.3 µM)
23 | CC(=O)O[C@@H]1CC[C@]2(C)C3=CC[C@]4(C)[C@@H]([C@H](C)CC/C=C(\C)C(=O)O)CC[C@@]4(C)C3=CC[C@H]2C1(C)C | 89 | > 50
24 | Cc1c2ccncc2c(C)c2c1[nH]c1ccccc12 [ELLIPTECINE] | 3.3 | 
25 | CC(=O)O[C@@H](C/C=C(\C)C(=O)O)[C@@H](C)[C@H]1C[C@H](OC(C)=O)[C@@]2(C)C3=CC[C@H]4C(C)(C)[C@H](OC(C)=O)CC[C@]4(C)C3=CC[C@]12C [GANODERIC ACID T] | 28 | 6.25 (≈ 10.2 µM)
26 | NNC(=O)c1ccncc1 [ISONIAZID] |  | 0.094 (≈ 0.685 µM)

— ChEMBL document CHEMBL3785000, “Antitubercular Lanostane Triterpenes from Cultures of the Basidiomycete Ganoderma sp. BCC 16642” (J Nat Prod, 2016)
